pEC50: −log10 of the molar value. Values after ≈ are worked out from the molar mass of the structure shown. Like-named read-outs stand apart in the source and are kept apart here.
What was measured:
hGPR65 = biological target: T1, hGPR65 (Homo sapiens, UniProt Q8IYL9); test: cAMP detection in HeLa expression cell line, hGPR65; type: cell-based; conditions: for activity for hGPR65 among prioritized molecules: 1.56 μM; for activity for hGPR65 among prioritized molecules / cAMP activity, hGPR65: pH 7.2; for Emax: HeLa, read-out: hGPR Max Activity %; for EC50: hGPR EC50 (uM)
T1 construct: expressed in transfected cells; host or cells: HeLa (ATCC CCL-2), lentiviral transduction, pLX317
How it was run: (§1)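 Compound was dispensed from a 10 mM DMSO stock, and puromycin-selected HeLa lines carrying lentiviral V5-tagged receptor were added at 1500 cells/well in pH 7.2 stimulation buffer. After 30 min stimulation at room temperature, cells were lysed and detection ran 1 h in the dark before cAMP TR-FRET reading.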

mGPR65 = biological target: T2, mGPR65 (Mus musculus, UniProt Q61038); test: cAMP detection in HeLa expression cell line, mGPR65; type: cell-based; conditions: for activity for mGPR65 among prioritized molecules: 1.56 μM; for activity for mGPR65 among prioritized molecules / cAMP activity, mGPR65: pH 7.2; for Emax: HeLa, read-out: mGPR Max Activity %; for EC50: mGPR EC50 (uM); for pEC50: SAR cAMP assay, read-out: mGPR EC50
T2 construct: expressed in transfected cells; host or cells: HeLa (ATCC CCL-2), lentiviral transduction, pLX317
How it was run: as §1

human GPR4 (hGPR4) = biological target: T3, human GPR4 (hGPR4) (Homo sapiens, UniProt P46093); test: cAMP detection in HeLa expression cell line, hGPR4; type: cell-based; conditions: GPR4 EC50 (uM); pH 7.2, 30 min
T3 construct: expressed in transfected cells; host or cells: HeLa (ATCC CCL-2), lentiviral transduction, pLX317
Procedure: HeLa stable expression cell lines were produced by lentiviral transduction. Briefly, lentiviral plasmids for each GPCR with a C-terminal V5 Tag ([…]) were made in a pLX317 backbone using competent Escherichia coli (New England Biolabs, C3050H). Lenti-X 293 T (Takara, 632810) cells were transfected with the lentiviral plasmids to produce virus. Low-passage HeLa cells (American Type Culture Collection, CCL-2) were then transduced with lentivirus. After 48 hours, HeLa cells were cultured under selection with puromycin (3 μg/ml) and allowed to recover and expand before storing stocks in liquid nitrogen.
cAMP was measured in cells using the Lance Ultra cAMP Kit. HeLa cells were cultured under puromycin (3 μg/ml) selection. One day before the experiment, cells were seeded in T75 flasks and allowed to adhere overnight. On the day of the experiment, cells were washed twice with Dulbecco’s PBS and lifted using prewarmed 1× versene solution (Gibco, 15040066). Cells were counted in HBSS (Gibco, 14025092) and then resuspended in stimulation buffer prepared according to the manufacturer’s instructions and adjusted to pH 7.2 using 1 M sodium hydroxide. Cells were added to the plate at a density of 1500 cells per well in white opaque 384-well assay ready microplates containing 100 nl of 10 mM compound in DMSO. Cells were stimulated for 30 min at RT, then lysed and incubated with detection reagents for 1 hour in the dark at RT. Plates were read on BMG Labtech PHERAstar FSX (excitation, 337 nm; emission, 620 and 665 nm). Data analysis was performed using GraphPad Prism.

hGPR65-SmBiT = biological target: T4, hGPR65-SmBiT (Homo sapiens, UniProt Q8IYL9); test: Nano-BiT target engagement, LgBiT-mGs recruitment to hGPR65-SmBiT in Expi293F cells; type: cell-based; conditions: 10 μM; for activity after HCl versus water, hGPR65: HCl or H2O at cycle 10
T4 construct: expressed in transfected cells; host or cells: Expi293F (Gibco), transient transfection
Procedure: (§2) Target engagement was measured in Expi293F (Gibco, 100044202) cells using the Nano-Glo Live Cell Assay System (Promega, N2011). Nano-BiT plasmids were cloned from GPR65-, GPR4-, and GPR68-Tango plasmids. GPR65-Tango (Addgene plasmid # 66370; http://n2t.net/addgene:66370; RRID:Addgene_66370), GPR4-Tango (Addgene plasmid # 66358; http://n2t.net/addgene:66358; RRID:Addgene_66358), and GPR68-Tango (Addgene plasmid # 66371; http://n2t.net/addgene:66371; RRID:Addgene_66371) were gifts from Bryan Roth. Expi293F cells were transfected 1 day before kinetics with 500 ng of each plasmid using ExpiFectamine 293 Transfection Kit (Gibco, A14525). After 24 hours, cells were collected, washed, and resuspended in room temperature 0.1% PBS-BSA, adjusted to pH 7.4 using 1 M NaOH. Cells were transferred to white opaque 96-well microplates (100 μl per well, PerkinElmer, 6005290), followed by addition of the Nano-Glo Live Cell Reagent (25 μl per well). Baseline luminescence was measured for 10 cycles (1 cycle = 90 s) before adding compounds. All luminescence measurements were made on BMG Labtech PHERAstar FSX. Data analysis was performed using GraphPad Prism.

mGPR65-SmBiT = biological target: T5, mGPR65-SmBiT (Mus musculus, UniProt Q61038); test: Nano-BiT target engagement, LgBiT-mGs recruitment to mGPR65-SmBiT; type: cell-based; conditions: 10 μM; for activity after HCl versus water, mGPR65: HCl or H2O at cycle 10
T5 construct: expressed in transfected cells; host or cells: Expi293F (Gibco), transient transfection
Procedure: as §2

hGPR4-SmBiT = biological target: T6, hGPR4-SmBiT (Homo sapiens, UniProt P46093); test: Nano-BiT target engagement, LgBiT-mGs recruitment to hGPR4-SmBiT; type: cell-based; conditions: 10 μM
T6 construct: expressed in transfected cells; host or cells: Expi293F (Gibco), transient transfection
Procedure: as §2

[1] = Solubility in phosphate buffer; type: physicochemical
Lipophilicity (logD) = type: physicochemical
hGPR65 I231L-SmBiT = biological target: T7, hGPR65 I231L-SmBiT (Homo sapiens, UniProt Q8IYL9, I231L); test: Nano-BiT target engagement, LgBiT-mGs recruitment to hGPR65 I231L-SmBiT; type: cell-based; conditions: 10 μM
T7 construct: expressed in transfected cells; host or cells: Expi293F (Gibco), transient transfection
Procedure: as §2

[2] = tested on: WT HeLa cells expressing hGPR65; test: Cytotoxicity assay (CellTiter-Glo, 72 hours); type: cell-based, human
Procedure: WT HeLa cells expressing hGPR65 were seeded at 2000 cells per well in 384-well plates. Compounds were tested in 10-point dose, starting at 50 μM. Cells were incubated with compounds for 72 hours at 37°C, 5% CO2. Cytotoxicity was measured using CellTiter-Glo Luminescent Cell Viability Assay (Promega, G7572) according to the manufacturer’s protocol. Luminescence measurements were made on BMG Labtech PHERAstar FSX. Data analysis was performed using GraphPad Prism.

[3] = tested on: GFP-expressing HeLa cells; test: cAMP detection in HeLa expression cell line, GFP control; type: cell-based, human
How it was run: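 HeLa cells stably expressing C-terminally V5-tagged receptor or GFP (lentiviral, puromycin 3 μg/ml) stimulated at 1500 cells per well for 30 min at RT with compound (10 mM DMSO stock) in stimulation buffer at pH 7.2. cAMP detected by Lance Ultra TR-FRET after lysis and 1 h detection, excitation 337 nm, emission 620/665 nm.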

[4] = Comment on solubility in SAR table; type: physicochemical
From the text: Supplement sciadv.adn2339_data_s1_to_s4.zip/sciadv.adn2339_data_s2.xlsx, sheet "SAR cAMP Assay"

[5] = 1st hGPR column pair, relative to 100uM forskolin (100%) and DMSO (0%), NA = no activity
[6] = 2nd hGPR column pair, relative to 100uM forskolin (100%) and DMSO (0%), NA = no activity
[7] = 2nd mGPR column pair, relative to 100uM forskolin (100%) and DMSO (0%), NA = no activity
[8] = relative to 100uM forskolin (100%) and DMSO (0%), NA = no activity
[9] = 2nd mGPR column pair, NA = no activity
[10] = first pair of columns, pH 7.2, 30 min
[11] = second pair of columns, pH 7.2, 30 min
[12] = pH 7.4, pH7.4, read-out: LogD (pH7.4)
[13] = second pair, relative to 100uM forskolin (100%) and DMSO (0%)
[14] = third pair, relative to 100uM forskolin (100%) and DMSO (0%)

T4 sequence (Q8IYL9 whole entry): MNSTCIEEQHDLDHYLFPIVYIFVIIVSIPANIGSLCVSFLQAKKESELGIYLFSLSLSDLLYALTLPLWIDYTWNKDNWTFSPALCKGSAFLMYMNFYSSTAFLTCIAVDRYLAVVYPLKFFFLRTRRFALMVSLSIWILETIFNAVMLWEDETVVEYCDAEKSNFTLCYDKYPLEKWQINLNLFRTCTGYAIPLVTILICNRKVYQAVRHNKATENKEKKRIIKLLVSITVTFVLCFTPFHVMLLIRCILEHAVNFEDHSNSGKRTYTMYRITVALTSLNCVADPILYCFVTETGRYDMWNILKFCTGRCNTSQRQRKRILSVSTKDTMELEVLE
T1 sequence (Q8IYL9 whole entry): as above
T2 sequence (Q61038 whole entry): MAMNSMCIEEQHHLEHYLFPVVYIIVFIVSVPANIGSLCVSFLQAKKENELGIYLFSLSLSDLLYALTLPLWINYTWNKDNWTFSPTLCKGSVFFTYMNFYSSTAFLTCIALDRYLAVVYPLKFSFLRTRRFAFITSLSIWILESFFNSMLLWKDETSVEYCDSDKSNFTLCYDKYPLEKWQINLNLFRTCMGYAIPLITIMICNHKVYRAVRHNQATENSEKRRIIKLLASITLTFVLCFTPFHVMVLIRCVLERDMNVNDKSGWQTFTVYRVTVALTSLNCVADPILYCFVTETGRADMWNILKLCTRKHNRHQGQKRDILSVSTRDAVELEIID
T5 sequence (Q61038 whole entry): as above
T6 sequence (P46093 whole entry): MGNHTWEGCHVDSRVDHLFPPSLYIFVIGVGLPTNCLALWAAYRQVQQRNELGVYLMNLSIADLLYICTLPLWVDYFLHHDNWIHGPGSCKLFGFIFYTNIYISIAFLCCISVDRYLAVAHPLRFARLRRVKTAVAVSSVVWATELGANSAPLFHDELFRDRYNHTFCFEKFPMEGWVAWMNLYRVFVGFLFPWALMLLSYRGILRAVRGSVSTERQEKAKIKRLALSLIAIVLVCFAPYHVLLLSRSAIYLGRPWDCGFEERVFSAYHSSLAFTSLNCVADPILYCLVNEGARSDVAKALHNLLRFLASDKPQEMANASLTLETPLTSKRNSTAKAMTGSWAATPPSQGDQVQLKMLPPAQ
T3 sequence (P46093 whole entry): as above
T7 sequence (Q8IYL9 whole entry I231L): as the sequence (Q8IYL9 whole entry) above, with I231L counted along it

Row | Structure (SMILES) | activity for hGPR65 among prioritized molecules (hGPR65) | Emax (hGPR65; [5]) [%] | Emax (hGPR65; [6]) [%] | EC50 (hGPR65; NA = no activity) [µM] | EC50 (hGPR65; pH 7.2, 30 min) [µM] | pEC50 (hGPR65; hGPR EC50, NA = no activity) | pEC50 (hGPR65; hGPR EC50, pH 7.2, 30 min) | cAMP activity, hGPR65 (hGPR65) | activity for mGPR65 among prioritized molecules (mGPR65) | Emax (mGPR65; [7]) [%] | Emax (mGPR65; [8]) [%] | EC50 (mGPR65; [9]) [µM] | EC50 (mGPR65; [10]) [µM] | EC50 (mGPR65; [11]) [µM] | EC50 (mGPR65; NA = no activity) [µM] | cAMP activity, mGPR65 (mGPR65) | mGs recruitment / engagement of hGPR65 (hGPR65-SmBiT) | activity after HCl versus water, hGPR65 (hGPR65-SmBiT) | mGs recruitment / engagement of mGPR65 (mGPR65-SmBiT) | activity after HCl versus water, mGPR65 (mGPR65-SmBiT) | other results
1 | Cc1ccc(NC(=O)c2cnn3c(O)cc(-c4ccc(COC(C)C)c(Cl)c4)nc23)cc1 [BRD5059, O=C(NC1=CC=C(C)C=C1)C2=C3N(N=C2)C(O)=CC(C4=CC=C(COC(C)C)C(Cl)=C4)=N3] | highest activity | 76 | 75.4 | 0.577 | 0.478 | 6.54 | 6.21 | at least 40% | highest activity | 42.2 | 51 | 0.379 | 0.591 | 0.546 | 0.505 | at least 40% | showed engagement | showed activity when preceded by the addition of HCl but not water | showed engagement | showed activity when preceded by the addition of HCl but not water | EC50 (human GPR4 (hGPR4)): 1.68 µM; response in cells expressing hGPR4-SmBiT (hGPR4-SmBiT): failing to elicit responses; solubility ([1]; read-out: Solubility): < 1.56 µM; logD (Lipophilicity (logD); [12]): > 5.25
2 | Cc1ccc(NC(=O)c2cnn3c(O)cc(-c4ccc(COC(C)C)cc4)nc23)c(F)c1 [BRD5080, O=C(NC1=C(F)C=C(C)C=C1)C2=C3N(N=C2)C(O)=CC(C4=CC=C(COC(C)C)C=C4)=N3] | highest activity | 80 | 70.4 | 0.856 | 1.41 | 5.78 | 5.83 | at least 40% | highest activity | 56 | 63.5 | 0.371 | 0.432 | 0.653 | 0.0578 | at least 40% | showed engagement | showed activity when preceded by the addition of HCl but not water | showed engagement | showed activity when preceded by the addition of HCl but not water | mode of action from pH-dependent cAMP production (hGPR65; 0 to 50 μM, pH range of 6.6 to 7.6): PAMs; cAMP response against mGPR65 among prioritized compounds (mGPR65; HeLa cells): highest cAMP response; response in cells expressing hGPR4-SmBiT (hGPR4-SmBiT): failing to elicit responses; G protein recruitment in cells expressing hGPR65 I231L (hGPR65 I231L-SmBiT): able to recruit G protein; cell viability ([2]; 50 μM, 72 hours): slight decrease in cell viability; cytotoxicity ([2]; 72-hour incubation, 0-50 μM): not cytotoxic; solubility ([1]; read-out: solubility in phosphate buffer): 13.6 µM (≈ 5.91 µg/mL); logD (Lipophilicity (logD); [12]): 3.65; logD (Lipophilicity (logD); read-out: lipophilicity (logD)): 3.62
3 | Cc1ccc(NC(=O)c2cnn3c(O)cc(-c4cccc(-c5ccccc5)c4)nc23)cc1 [BRD8101] | – | – | – | – | – | – | – | – | – | – | – | – | – | – | – | – | – | – | – | – | Emax (hGPR65; [13]): 7.53%; pEC50 (hGPR65; SAR cAMP assay, second EC50/Max pair of hGPR columns, read-out: hGPR EC50): 5.02; pEC50 (hGPR65; SAR cAMP assay, third EC50/Max pair of hGPR columns, read-out: hGPR EC50): 4.87; hGPR Max Activity (hGPR65; [14]): 28.01%; Emax (mGPR65; [13]): 73.1%; pEC50 (mGPR65; second EC50/Max pair of mGPR columns): 6.25; pEC50 (mGPR65; third EC50/Max pair of mGPR columns): 7.05; mGPR Max Activity (mGPR65; [14]): 82.45%; pEC50 ([3]; Homo sapiens, HeLa, SAR cAMP assay, third EC50/Max pair of GFP control columns): 5.49; GFP Max Activity [3, 14]: 2.825%; Comments (solubility) [4]: Poor solubility.

— PMC11259170, “Small-molecule probe for IBD risk variant GPR65 I231L alters cytokine signaling networks through positive allosteric modulation” (Science Advances, 2024)
